Data taken from the supplement of paper PMC6045584.
± gives the standard deviation of the averaged measurements.

Columns and labels:
CANERTINIB [1] = compound: T1, C=CC(=O)Nc1cc2c(Nc3ccc(F)c(Cl)c3)ncnc2cc1OCCCN1CCOCC1 [CANERTINIB]; experiment: surviving fraction relative to DMSO-only wells; higher = less growth inhibition; details: exposure time: 5 days
Method in brief: (§1)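 Surviving fraction was calculated by normalising CellTiter-Glo luminescence to the median of DMSO-only wells. Tumour cell lines in log phase were seeded in 384-well plates at 250–500 cells per well, and 24 hours later were exposed continuously for five days to inhibitors at 0.5, 1, 5, 10, 50, 100, 500 and 1000 nM.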

SNX-5422 [2] = compound: T2, CC1(C)CC(=O)c2c(C(F)(F)F)nn(-c3ccc(C(N)=O)c(N[C@H]4CC[C@H](OC(=O)CN)CC4)c3)c2C1 [SNX-5422]; experiment: as above; details: exposure time: 5 days
Method in brief: as §1

SAPACITABINE [3] = compound: T3, CCCCCCCCCCCCCCCC(=O)Nc1ccn([C@@H]2O[C@H](CO)[C@@H](O)[C@@H]2C#N)c(=O)n1 [SAPACITABINE]; experiment: as above; details: exposure time: 5 days
Method in brief: as §1

BI-2536 [4] = compound: T4, CC[C@@H]1C(=O)N(C)c2cnc(Nc3ccc(C(=O)NC4CCN(C)CC4)cc3OC)nc2N1C1CCCC1 [BI-2536]; experiment: as above; details: exposure time: 5 days
Method in brief: as §1

AFATINIB [5] = compound: T5, CN(C)C/C=C/C(=O)Nc1cc2c(Nc3ccc(F)c(Cl)c3)ncnc2cc1O[C@H]1CCOC1 [AFATINIB]; experiment: as above; details: exposure time: 5 days
Method in brief: as §1

MDV3100 [6] = compound: T6, CNC(=O)c1ccc(N2C(=S)N(c3ccc(C#N)c(C(F)(F)F)c3)C(=O)C2(C)C)cc1F [MDV3100]; experiment: as above; details: exposure time: 5 days
Method in brief: as §1

[7] = compound: Cn1cc(C2=Nc3cc(NC(=O)C(N)C4CCCCC4)cc4c3C2=CNNC4=O)cn1; experiment: as above; details: exposure time: 5 days
Method in brief: as §1

TIOGUANINE = compound: Nc1nc2[nH]cnc2c(=S)[nH]1 [TIOGUANINE]; experiment: as above; details: exposure time: 5 days
Method in brief: as §1

CANERTINIB [8] = compound: T1, CANERTINIB; experiment: area under dose-response curve of surviving fraction (unscaled, Aref=0) (surviving fraction x log10(nM)); higher = more resistant; details: exposure time: 5 days; dose range 0.5-1000 nM
Method in brief: (§2)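 Inhibitor was applied to tumour cell lines at eight concentrations (0.5 to 1000 nM) for five days in 384-well plates. Luminescence from CellTiter-Glo, scaled to DMSO-only wells, gave surviving fractions in three screens per line, and these were fitted by 3-parameter logistic regression with the drc R package. The area under the curve is an unscaled activity area. Aref was 0, and dose was on a log10 scale.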

SNX-5422 [9] = compound: T2, SNX-5422; experiment: as above; details: exposure time: 5 days; dose range 0.5-1000 nM
Method in brief: as §2

SAPACITABINE [10] = compound: T3, SAPACITABINE; experiment: as above; details: exposure time: 5 days; dose range 0.5-1000 nM
Method in brief: as §2

BI-2536 [11] = compound: T4, BI-2536; experiment: as above; details: exposure time: 5 days; dose range 0.5-1000 nM
Method in brief: as §2

AFATINIB [12] = compound: T5, AFATINIB; experiment: as above; details: exposure time: 5 days; dose range 0.5-1000 nM
Method in brief: as §2

MDV3100 [13] = compound: T6, MDV3100; experiment: as above; details: exposure time: 5 days; dose range 0.5-1000 nM
Method in brief: as §2

[14] = compound: Cn1cc(C2=Nc3cc(NC(=O)C(N)C4CCCCC4)cc4c3C2=CNNC4=O)cn1; experiment: as above; details: exposure time: 5 days; dose range 0.5-1000 nM
Method in brief: as §2

SUM149 BREAST
surviving fraction (CANERTINIB [1]; 0.5 nM): 0.898 ± 0.078
surviving fraction (CANERTINIB [1]; 1 nM): 0.832 ± 0.052
surviving fraction (CANERTINIB [1]; 5 nM): 0.627 ± 0.029
surviving fraction (CANERTINIB [1]; 10 nM): 0.531 ± 0.04
surviving fraction (CANERTINIB [1]; 50 nM): 0.451 ± 0.053
surviving fraction (CANERTINIB [1]; 100 nM): 0.424 ± 0.072
surviving fraction (CANERTINIB [1]; 500 nM): 0.324 ± 0.037
surviving fraction (CANERTINIB [1]; 1000 nM): 0.279 ± 0.037
surviving fraction (SNX-5422 [2]; 0.5 nM): 0.982 ± 0.046
surviving fraction (SNX-5422 [2]; 1 nM): 0.986 ± 0.14
surviving fraction (SNX-5422 [2]; 5 nM): 1.09 ± 0.1
surviving fraction (SNX-5422 [2]; 10 nM): 0.951 ± 0.097
surviving fraction (SNX-5422 [2]; 50 nM): 0.0727 ± 0.0076
surviving fraction (SNX-5422 [2]; 100 nM): 0.082 ± 0.0095
surviving fraction (SNX-5422 [2]; 500 nM): 0.0233 ± 0.0021
surviving fraction (SNX-5422 [2]; 1000 nM): 0.0287 ± 0.0015
surviving fraction (SAPACITABINE [3]; 0.5 nM): 0.829 ± 0.11
surviving fraction (SAPACITABINE [3]; 1 nM): 0.666 ± 0.055
surviving fraction (SAPACITABINE [3]; 5 nM): 0.69 ± 0.11
surviving fraction (SAPACITABINE [3]; 10 nM): 0.188 ± 0.006
surviving fraction (SAPACITABINE [3]; 50 nM): 0.339 ± 0.031
surviving fraction (SAPACITABINE [3]; 100 nM): 0.22 ± 0.018
surviving fraction (SAPACITABINE [3]; 500 nM): 0.236 ± 0.016
surviving fraction (SAPACITABINE [3]; 1000 nM): 0.186 ± 0.021
surviving fraction (BI-2536 [4]; 0.5 nM): 1.05 ± 0.054
surviving fraction (BI-2536 [4]; 1 nM): 0.906 ± 0.091
surviving fraction (BI-2536 [4]; 5 nM): 0.122 ± 0.012
surviving fraction (BI-2536 [4]; 10 nM): 0.0487 ± 0.0035
surviving fraction (BI-2536 [4]; 50 nM): 0.0743 ± 0.0057
surviving fraction (BI-2536 [4]; 100 nM): 0.0903 ± 0.014
surviving fraction (BI-2536 [4]; 500 nM): 0.084 ± 0.01
surviving fraction (BI-2536 [4]; 1000 nM): 0.0603 ± 0.0065
surviving fraction (AFATINIB [5]; 0.5 nM): 1.03 ± 0.076
surviving fraction (AFATINIB [5]; 1 nM): 1.05 ± 0.033
surviving fraction (AFATINIB [5]; 5 nM): 0.703 ± 0.12
surviving fraction (AFATINIB [5]; 10 nM): 0.573 ± 0.089
surviving fraction (AFATINIB [5]; 50 nM): 0.481 ± 0.056
surviving fraction (AFATINIB [5]; 100 nM): 0.439 ± 0.013
surviving fraction (AFATINIB [5]; 500 nM): 0.4053 ± 0.004
surviving fraction (AFATINIB [5]; 1000 nM): 0.339 ± 0.044
surviving fraction (MDV3100 [6]; 0.5 nM): 1.03 ± 0.047
surviving fraction (MDV3100 [6]; 1 nM): 0.922 ± 0.087
surviving fraction (MDV3100 [6]; 5 nM): 0.897 ± 0.038
surviving fraction (MDV3100 [6]; 10 nM): 0.36 ± 0.043
surviving fraction (MDV3100 [6]; 50 nM): 1.07 ± 0.095
surviving fraction (MDV3100 [6]; 100 nM): 0.951 ± 0.021
surviving fraction (MDV3100 [6]; 500 nM): 1.01 ± 0.092
surviving fraction (MDV3100 [6]; 1000 nM): 0.546 ± 0.013
surviving fraction ([7]; 0.5 nM): 0.875 ± 0.087
surviving fraction ([7]; 1 nM): 0.854 ± 0.13
surviving fraction ([7]; 5 nM): 0.874 ± 0.14
surviving fraction ([7]; 10 nM): 0.911 ± 0.1
surviving fraction ([7]; 50 nM): 0.481 ± 0.067
surviving fraction ([7]; 100 nM): 0.238 ± 0.047
surviving fraction ([7]; 500 nM): 0.0587 ± 0.0096
surviving fraction ([7]; 1000 nM): 0.063 ± 0.0062
surviving fraction (TIOGUANINE; 0.5 nM): 1.06 ± 0.068
surviving fraction (TIOGUANINE; 1 nM): 0.998 ± 0.076
surviving fraction (TIOGUANINE; 5 nM): 1.11 ± 0.068
surviving fraction (TIOGUANINE; 10 nM): 1.05 ± 0.058
surviving fraction (TIOGUANINE; 50 nM): 0.984 ± 0.029
surviving fraction (TIOGUANINE; 100 nM): 1.06 ± 0.082
surviving fraction (TIOGUANINE; 500 nM): 1.01 ± 0.067
surviving fraction (TIOGUANINE; 1000 nM): 1.05 ± 0.058
area under dose-response curve (CANERTINIB [8]): 1.76
area under dose-response curve (SNX-5422 [9]): 1.7
area under dose-response curve (SAPACITABINE [10]): 1.31
area under dose-response curve (BI-2536 [11]): 0.784
area under dose-response curve (AFATINIB [12]): 1.98
area under dose-response curve (MDV3100 [13]): 2.73
area under dose-response curve [14]: 1.97
